Experimental data: patent US9675555B2, “Liposome-encapsulated bicelles and use thereof in diluted systems” (priority 2010, dated 2017)
Counter-ions that a name gives are not always drawn.

Test system: not listed separately
Test: Incorporation of different substances into the systems
Format: physicochemical
Settings: not given
Method: The incorporation was made in the step of formation of the bicelles. Depending on the hydrophilic or lypophilic character of the substance, this was added together with the lipids forming the bicelle in the chloroform step or together with the hydration water. For these preparations, the following blends: DPPC/DHPC, DMPC/DHPC and DOPC/DHPC were selected. The DOPC is dioleoylphosphatidylcholine. The work was carried out with molar rates of the concentrations of both lipids between 2 and 3.5.
The samples were submitted between 10 and 50 sonication cycles in an ultrasound bath for a period of 5 minutes and 5 minutes of freezing until they became clear.
These bicelles, together with the substances internally contained were encapsulated in liposomes in the form described in example 1 and were characterized according to the methods described in example 2.
The nistatine molecule was incorporated to the systems of the invention as described in example 3.

Molecule | encapsulation within the bicelles contained within the liposomes of the invention
O=C(O)Cc1ccccc1Nc1c(Cl)cccc1Cl [dichlophenac] | efficiently encapsulated
Cn1c(=O)c2c(ncn2C)n(C)c1=O [caffeine] | efficiently encapsulated
CC(C)CCC[C@@H](C)[C@H]1CC[C@H]2[C@@H]3CC=C4C[C@@H](OS(=O)(=O)O)CC[C@]4(C)[C@H]3CC[C@]12C [cholesterol sulfate] | efficiently encapsulated
O=C(O)c1ccccc1Nc1cccc(C(F)(F)F)c1 [flufenamic acid] | efficiently encapsulated
[Fe] [iron] | efficiently encapsulated
CNC(=O)CN(CCN(CCN(CC(=O)[O-])CC(=O)NC)CC(=O)[O-])CC(=O)[O-].[Gd+3] [gadodiamide] | efficiently encapsulated
ceramides | efficiently encapsulated

Same assay, conditions: high water content system

Molecule | quantity of nistatine incorporated into the system of the invention
nistatine | about 15.75 mg/ml

Test system: Candida albicans fungus
Test: Microbiologic activity of nistatine (MIC)
Format: cell-based
Settings: nistatine incorporated to the liposomes of the invention

Molecule | minimum inhibitory concentration (MIC)
nistatine | 16 µg/mL
